According to patent US9488641B2, “Multicellular system and method for multiparametric analysis” (Case Western Reserve University, priority 2012, dated 2016):
Entries after “also recorded” stand apart in the source; their conditions may differ.

How the values were obtained:
MCF7-R cells = experiment: Oxygen concentration under MCF7-R model agar half spheroid measured with Au microdisc electrode array; pharmacological modulation of cellular oxygen consumption; format: cell-based; conditions: for Change of measured oxygen concentration after addition: 100 μm [sic] NaN3, 200 μm [sic] DNP; for Measured O2 concentration (%) after NaN3: 100 μM NaN3, representative experiment
Protocol: Confluent plates of MCF7-R cells ere trypsinized and collected in a sterile 1 mL vial. The cell density and the total number of cells in the vial were estimated by cell counting using a hematocytometer. The cells were spun down in a centrifuge and the supernant medium removed. […] The vial with the cell-agar mixture was constantly kept in water bath at 37° C. to prevent the agar from gelling. Tiny hemispherical droplets (800-1000 μm diameter) of this mixture were deposited onto a Teflon® sheet using 0.5-2.5 μL pipette (Eppendorf, Hauppauge, N.Y.) to obtain hemispherical multicellular model agar spheroids. The Teflon® sheet with the model agar half spheroids was incubated in culture medium used for MCF7-R cell culture at 37° C. in 5% CO2. Henceforth, model agar half spheroids will be referred to simply as half spheroids.
The Au microdisc electrodes were polished using a fine emery paper to expose fresh electrode surface before each experiment. The polished electrodes were rinsed with DI water and allowed to dry in air (˜1 hour) after which a thin (˜10 μm) layer (spacer) of cellulose acetate was deposited. The electrodes were pre-conditioned electrochemically prior to starting the half spheroid experiment by continuous cyclic voltammograms (CV) until a stable measurement was reached (at least 50 CVs). The electrodes were calibrated for oxygen reduction current in PBS at different oxygen concentrations prior to the half spheroid experiment (henceforth, referred to as pre-calibration). A half spheroid was positioned on top of the electrode array and the oxygen concentrations inside the spheroid interrogated by linear scan voltammetry (LSV). Oxygen reduction currents under the half spheroid were recorded for half an hour after which the viability of cells inside the half spheroid was checked by pharmacological modulation of cellular oxygen consumption by administering metabolic poisons—NaN3 and DNP. At the end of the experiment the spheroid was removed and current corresponding to ambient oxygen concentration was recorded. The spheroid experiment was followed by a post experiment calibration (henceforth, referred to as post-calibration) of the electrodes to check for electrode drift. The LSV data recorded during these experiments was post processed to extract oxygen concentration values under the spheroid.
The Teflon® sheet on which half spheroids are was is removed from the incubating medium. A half spheroid was carefully transferred onto the electrode array using a curved edge of a pair of tweezers such that the radial electrode array was aligned along a spheroid radius (FIG. 8E). The positioning was done under a 2× stereo microscope to ensure that the spheroid is resting on its flat (bottom) edge. After the agar spheroid was positioned at the desired location a drop of low gelling agarose made in PBS maintained in liquid form at 37° C. was dispensed onto the spheroid from the top to secure its position and prevent it from moving with convective flow. PBS was added to the measurement device reservoir immediately after the spheroid position was secured. The time taken to position the spheroid from the time the half spheroid Petri-dish was removed from the incubator to the time when oxygen measurement is started is less than 3 minutes. During this time the cells in the spheroid (except the outer most shell) were not directly exposed to air.
Desired volumes of the NaN3, DNP and glucose solutions were gently added to the test solution using a disposable transfer pipettes. The solution was then homogenized by gentle circular movements induced by the same pipette for ˜10 s.

[1] = tested on: BAC1.2F5 macrophage cells; experiment: Oxygen uptake by BAC1.2F5 macrophage cells measured with Pt microring electrode (pulse amperometry); format: cell-based, mouse
Protocol: A CHI 1030 8-channel potentiostat (CH Instruments Inc., Austin, TZ) was used to perform all electrochemical experiments: Cyclic Voltammetry (CV) and Pulse Amperometry (PA). The experimental setup was placed inside a custom built Faraday cage which was equipped with an XYZ stage for manipulation of the devices and a custom built thermostat to maintain the temperature inside the Faraday cage at 25° C. A Scion camera was mounted on top of the Faraday cage to visual observation of the sensing unit of interest. The microfabricated Pt microring electrode was used as the working electrode of the electrochemical cell. An Ag/AgCl reference and a Pt counter electrode were used to complete the cell.
Live mouse macrophage cells (BAC1.2F5) were used for cell experiments. Culture and disposal procedures of these cells are described by E1-Moatassim and Dubyak (el-Moatassim and Dubyak 1992) in detail.
A 100 μL drop of cell medium with suspended cells (105 BAC 1.2F5 mouse macrophages/mL) was gently added to the buffer with a disposable plastic pipette on top of the chip ˜5 mm from the targeted sensing unit. A simple hydrodynamic manipulation technique previously developed in our laboratory (Yoshida, Tohda et al. 2003) was then used to precisely position the selected cell(s) inside the targeted microring electrode.
˜500 μL of the required solution was added to the buffer using a disposable plastic pipette. The buffer was then homogenized by gentle circular movements induced by the same pipette for ˜10 seconds.
Continuous measurement will lead to sustained depletion of oxygen near the electrode. When cells are positioned near the electrodes this depletion of oxygen may perturb oxygen dependent cellular processes by decreasing the local availability of oxygen. To mitigate this undesirable effect, a pulse amperometry (PA) protocol was implemented. In this protocol the electrode potential is maintained at +0.5 V where no oxygen reduction occurs, before stepping to −0.55 V at which oxygen is reduced. The length of both pulses was chosen to be 250 ms. This restricts the time of depletion of oxygen to the cathodic pulses by allowing for replenishment of oxygen during the anodic pulses. This protocol ensures a sampling rate of 2 Hz that can assess metabolic processes occurring on the seconds time scale. Current proportional to local oxygen concentration is recorded and averaged at the end of each cathodic pulse for 50 ms. This recording period is long enough to obtain a representative value while also minimizing interference by 60 Hz noise.
To confirm that the observed variations in oxygen concentration indicated by the MEMS device reflect physiological processes of the cell(s), we performed another experiment where the metabolic rate of the cell(s) was pharmacologically modulated. […]

## O=C[C@H](O)[C@@H](O)[C@H](O)[C@H](O)CO [D-Glucose]
MCF7-R cells; 25 mM D-Glucose added to PBS after the glucose-deprivation increase (FIG. 35)
  Change of measured oxygen concentration after addition of glucose to the PBS: decrease

## O=[N+]([O-])c1ccc(O)c([N+](=O)[O-])c1 [DNP, 2,4 dinitrophenol]
MCF7-R cells; 15% cell volume fraction spheroid (FIG. 30)
  Change of measured oxygen concentration after addition: decreases
MCF7-R cells; 15% cell volume fraction spheroid with 5% ambient pO2 (FIG. 34)
  Change of measured oxygen concentration after addition: decreases
MCF7-R cells; 15% cell volume fraction spheroid with 10% ambient pO2 (FIG. 33)
  Change of measured oxygen concentration after addition: decreases
MCF7-R cells; 30% cell volume fraction half spheroid, ~20% ambient O2, 100 μM sodium azide, then 200 μM DNP (final concentrations)
  Change of measured oxygen concentrations after addition: decreased rapidly; also recorded: decreases
MCF7-R cells; 30% cell volume fraction spheroid as printed (FIG. 31), non-zero oxygen core
  Change of measured oxygen concentration after addition: decreases
MCF7-R cells; MCF7-R cells in half spheroid, 100 μM NaN3, subsequent 200 μM DNP (final concentrations)
  Oxygen consumption by the cells: rapid increase

## [N-]=[N+]=[N-] [NaN3, sodium azide]
MCF7-R cells; electrode E1, 610 μm from the center of the spheroid (outside spheroid), 30% cell volume fraction half spheroid
  Measured O2 concentration (%) after NaN3: 15.9%
MCF7-R cells; electrode E2, 470 μm from the center of the spheroid, 30% cell volume fraction half spheroid
  Measured O2 concentration (%) after NaN3: 14.3%
MCF7-R cells; electrode E3, 370 μm from the center of the spheroid, 30% cell volume fraction half spheroid
  Measured O2 concentration (%) after NaN3: 10.8%
MCF7-R cells; electrode E4, 270 μm from the center of the spheroid, 30% cell volume fraction half spheroid
  Measured O2 concentration (%) after NaN3: 9.9%
MCF7-R cells; electrode E5, 180 μm from the center of the spheroid, 30% cell volume fraction half spheroid
  Measured O2 concentration (%) after NaN3: 9.6%

## C[C@@H]1O[C@@H](O[C@H]2C[C@@H](O)[C@]3(CO)[C@H]4[C@H](O)C[C@]5(C)[C@@H](C6=CC(=O)OC6)CC[C@]5(O)[C@@H]4CC[C@]3(O)C2)[C@H](O)[C@H](O)[C@H]1O [ouabain]
[1]; cluster of 6 cells inside microring
  Current higher than that recorded before administration of ouabain: ~1.7 nA
[1]; cluster of 6 cells inside microring, ~7.1 nA before ouabain
  Stabilized electrode current after addition of ouabain: ~8.8 nA
[1]; cluster of 6 cells inside microring, ~9% before ouabain
  Oxygen concentration corresponding to stabilized current after ouabain: ~15%
[1]; representative of 3 experiments
  Stationary local oxygen concentration immediately after administration of ouabain: increase
